# Assay results as given in patent publication US6358699B1, “Assay for asymmetrical NG, NG dimethyl-l-arginine” (Cooke Pharma, priority 1999, dated 2002).
# Molecular target: DDAH (Rattus norvegicus, UniProt O08557)
# Experiment: DDAH activity toward ADMA versus SDMA
# Format: biochemical
# Details: ADMA versus SDMA as substrate
# From the text: DDAH, however, has at least 1000-fold higher activity toward ADMA than SDMA, and is therefore uniquely suited for use in an enzymatic assay for unequivocal measurement of ADMA in complex mixtures. Nevertheless an enzymatic ADMA assay using DDAH is problematical because of a number of interfering components in blood. Importantly, citrulline is present in blood, so that it would provide a large background which would substantially diminish the accuracy of an assay where citrulline is the final product which is determined as a measure of the amount of ADMA in the sample. In addition, urea which is also present in blood cross-reacts in the citrulline assay. Finally, porphyrins in blood interfere with the spectrophotometric determination of citrulline. In order to have an enzymatic assay using DDAH, it is essential to prevent these various blood components from interfering with the assay.
# Chain of DDAH (O08557 whole entry): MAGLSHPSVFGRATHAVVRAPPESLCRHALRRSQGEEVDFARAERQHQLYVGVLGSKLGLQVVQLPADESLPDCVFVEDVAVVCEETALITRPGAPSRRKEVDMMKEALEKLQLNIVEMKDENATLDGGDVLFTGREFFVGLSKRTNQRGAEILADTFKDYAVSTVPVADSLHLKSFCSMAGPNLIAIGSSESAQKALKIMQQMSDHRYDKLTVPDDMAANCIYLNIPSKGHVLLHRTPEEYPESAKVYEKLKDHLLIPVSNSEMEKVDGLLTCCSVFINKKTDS
smiles,measurement,value
"CN(C)C(N)=NCCC[C@H](N)C(=O)O [ADMA, asymmetric dimethylarginine]",DDAH activity toward ADMA relative to SDMA,at least 1000 fold
